According to patent publication US20060189679A1, “C10 cyclopropyl ester substituted taxane compositions” (priority 2005, published 2006):
Values joined by “and” are separate entries in the source; they are usually repeats but may differ in a detail not shown here. Identical values can stand only once. Like-named read-outs stand apart in the source and are kept apart here.

Experiments:
[1] = system: 1A9-PTX22 paclitaxel resistant ovarian carcinoma cells (tubulin mutation); test: In vitro cytotoxic activity (MTT, 72 hr); type: cell-based, human; conditions: for IC50: 1A9-PTX22, ovarian, tubulin mutation, MTT 72 hr, unit not given (dilutions in nM), read-out: In Vitro Antitumor Activity (IC50)
[2] = system: DLD-1 multi-drug resistant human colon carcinoma xenografts; conditions: for MDS to 2.0 g ± SEM (n): DLD1-e07 study; for antitumor activity: DLD e07, optimum dose, route (IV) and schedule; for # Death NTR (Non-Treatment Related) / # Death TR (Treatment Related): mouse, in vivo
[3] = system: 786-0 human renal carcinoma xenografts; conditions: for Median survival / Median survival Ratio: iv
[4] = system: LnCaP prostate carcinoma cells; test: In vitro cytotoxic activity (MTT, 72 hr); type: cell-based, human; conditions: unit not given (dilutions in nM), read-out: In Vitro Antitumor Activity (IC50)
[5] = system: PANC-1 pancreatic adenocarcinoma cells; test: In vitro cytotoxic activity (MTT, 72 hr); type: cell-based, human; conditions: unit not given (dilutions in nM), read-out: In Vitro Antitumor Activity (IC50)
[6] = system: DLD-1 resistant colon carcinoma cells (overexpresses p-glycoprotein); test: In vitro cytotoxic activity (MTT, 72 hr); type: cell-based, human; conditions: DLD-1, colon, p-glycoprotein resistance, unit not given (dilutions in nM), read-out: In Vitro Antitumor Activity (IC50)
[7] = system: 1A9 ovarian carcinoma cells; test: In vitro cytotoxic activity (MTT, 72 hr); type: cell-based, human; conditions: unit not given (dilutions in nM), read-out: In Vitro Antitumor Activity (IC50)
[8] = system: HCT116 human colon carcinoma cells; test: Cell cycle and apoptotic analyses (propidium iodide flow cytometry); type: cell-based; conditions: HCT-116 cells, 24 hr exposure
[9] = system: HT-29 colon carcinoma cells; test: In vitro cytotoxic activity (MTT, 72 hr); type: cell-based, human; conditions: unit not given (dilutions in nM), read-out: In Vitro Antitumor Activity (IC50)
[10] = system: PC-3 prostate carcinoma cells; test: In vitro cytotoxic activity (MTT, 72 hr); type: cell-based, human; conditions: unit not given (dilutions in nM), read-out: In Vitro Antitumor Activity (IC50)
[11] = system: 1A9-PTX10 paclitaxel resistant ovarian carcinoma cells (tubulin mutation); test: In vitro cytotoxic activity (MTT, 72 hr); type: cell-based, human; conditions: for IC50: 1A9-PTX10, ovarian, tubulin mutation, MTT 72 hr, unit not given (dilutions in nM), read-out: In Vitro Antitumor Activity (IC50)
[12] = system: SW480 human colon carcinoma xenografts; conditions: mouse, in vivo; for controlling tumor growth compared to the lower doses of compound 3102: iv
[13] = system: HCT-116 colon carcinoma cells; test: In vitro cytotoxic activity (MTT, 72 hr); type: cell-based, human; conditions: unit not given (dilutions in nM), read-out: In Vitro Antitumor Activity (IC50)
[14] = Toxicity profile on oral and IV dosing in rats; conditions: dosed both orally and IV
[15] = Homo sapiens, Ovarian carcinoma cell
[16] = IV QWK × 3 25 mg/kg vs 5% EC in Saline PO Q4D × 4
[17] = IV QWK × 3 30 mg/kg vs 5% EC in Saline PO Q4D × 4

Compound: CC(=O)O[C@H]1C(=O)[C@@]2(C)[C@H]([C@H](OC(=O)c3ccccc3)[C@]3(O)C[C@H](OC(=O)[C@H](O)[C@@H](NC(=O)c4ccccc4)c4ccccc4)C(C)=C1C3(C)C)[C@]1(OC(C)=O)CO[C@@H]1C[C@@H]2O [Paclitaxel, paclitaxel]
- IC50 ([1]; Homo sapiens, 1A9/ptx-22): > 30 nM
- MDS to 2.0 g ± SEM (n) ([2]; 30 mg/kg IV QOD × 5): 40.2 ± 4.7
- antitumor activity [2]: failed to demonstrate significant antitumor activity against DLD-1 tumors
- # Death NTR (Non-Treatment Related) [2]: 0
- # Death TR (Treatment Related) ([2]; nude): 0
- slowing of tumor growth vs control (statistical analysis, words) ([3]; 786-0 e89, optimum dose, route (IV) and schedule): did not appear to significantly slow the growth of tumors compared to control
- Logrank Test Chi square ([3]; IV QOD × 5 30 mg/kg vs 5% EC in Saline PO Q4D × 4): 3.414
- # Death NTR (Non-Treatment Related) ([3]; mouse, in vivo): 0
- # Death TR (Treatment Related) ([3]; mouse, in vivo): 0
- Day of Max. % BW Loss ([3]; mouse, in vivo): Day 13
- MDS to 2.0 g ± SEM (n) ([3]; mouse, in vivo): 40.0 ± 6.6
- Max. % BW Loss ([3]; mouse, in vivo): −7.6%;
- Are the survival curves sig different? ([3]; mouse, in vivo, 30 mg/kg): No
- Median survival ([3]; mouse, in vivo, 30 mg/kg): 51.15
- IC50 ([4]; Homo sapiens): 3.1 nM
- IC50 ([5]; Homo sapiens): 4.2 nM
- IC50 ([6]; Homo sapiens): > 10 nM
- IC50 [7, 15]: 2.5 nM
- Apoptotic (percentage of cells in sub G1 peak) ([8]; 10 nM): 24.0%
- G1 (percentage of cells) ([8]; 10 nM): 31.1%
- G2/M (percentage of cells) ([8]; 10 nM): 17.8%
- S (percentage of cells) ([8]; 10 nM): 25.0%
- Apoptotic (percentage of cells in sub G1 peak) ([8]; 100 nM): 15.3%
- G1 (percentage of cells) ([8]; 100 nM): 7.0%
- G2/M (percentage of cells) ([8]; 100 nM): 67.2%
- S (percentage of cells) ([8]; 100 nM): 9.4%
- IC50 ([9]; Homo sapiens): 2.6 nM
- IC50 ([10]; Homo sapiens): 4.1 nM
- IC50 ([11]; Homo sapiens, 1A9/ptx-10): > 40 nM
- # Death NTR (Non-Treatment Related) [12]: 0
- # Death TR (Treatment Related) [12]: 0
- MDS to 2.0 g ± SEM (n) [12]: 26.2 ± 3.0
- controlling tumor growth compared to the lower doses of compound 3102 [12]: as effective or slightly less effective in controlling tumor growth

Compound: docetaxel
- IC50 [1]: 8.5 nM
- MDS to 2.0 g ± SEM (n) ([2]; 25 mg/kg IV Q7D × 3): 35.0 ± 2.3
- MDS to 2.0 g ± SEM (n) ([2]; 30 mg/kg IV Q7D × 3): 37.6 ± 6.5
- antitumor activity [2]: failed to demonstrate significant antitumor activity against DLD-1 tumors
- # Death NTR (Non-Treatment Related) [2]: 0
- # Death TR (Treatment Related) [2]: 0
- Hazard Ratio [3, 16]: 2.967
- Logrank Test Chi square [3, 16]: 4.859
- Hazard Ratio [3, 17]: 3.39
- Logrank Test Chi square [3, 17]: 5.271
- # Death TR (Treatment Related) ([3]; mouse, in vivo): 0
- MDS to 2.0 g ± SEM (n) ([3]; mouse, in vivo): 52.1 ± 4.7 and 49.3 ± 4.3
- slowing of tumor growth vs vehicle control (statistical analysis, words) ([3]; mouse, in vivo): able to slow 786-0 tumor growth compared to the vehicle control
- Are the survival curves sig different? ([3]; mouse, in vivo, 25 mg/kg): Yes
- Are the survival curves sig different? ([3]; mouse, in vivo, 30 mg/kg): Yes
- Median survival ([3]; mouse, in vivo, 25 mg/kg): 52.7
- Median survival Ratio ([3]; mouse, in vivo, 25 mg/kg): 0.704
- Median survival ([3]; mouse, in vivo, 30 mg/kg): 52
- Median survival Ratio ([3]; mouse, in vivo, 30 mg/kg): 0.7135
- IC50 [4]: 1.9 nM
- IC50 [5]: 2 nM
- IC50 [6]: 9.2 nM
- IC50 [7]: 1.8 nM
- Apoptotic (percentage of cells in sub G1 peak) ([8]; 10 nM): 44.1%
- G1 (percentage of cells) ([8]; 10 nM): 10.4%
- G2/M (percentage of cells) ([8]; 10 nM): 17.1%
- S (percentage of cells) ([8]; 10 nM): 25.4%
- Apoptotic (percentage of cells in sub G1 peak) ([8]; 100 nM): 14.4%
- G1 (percentage of cells) ([8]; 100 nM): 4.0%
- G2/M (percentage of cells) ([8]; 100 nM): 68.0%
- S (percentage of cells) ([8]; 100 nM): 11.6%
- IC50 [9]: 1.2 nM
- IC50 [10]: 2.8 nM
- IC50 [13]: 0.9 nM
- IC50 [11]: 7 nM
- MDS to 2.0 g ± SEM (n) [12]: 29.0 ± 7.8 and 32.4 ± 4.1
- non-treatment related death [12]: one
- non-treatment related deaths [12]: two
- treatment related death [12]: one
- controlling tumor growth compared to the lower doses of compound 3102 [12]: as effective or slightly less effective in controlling tumor growth

Compound: CC(=O)O[C@@]12CO[C@@H]1C[C@H](O)[C@@]1(C)C(=O)[C@H](OC(=O)C3CC3)C3=C(C)[C@@H](OC(=O)[C@H](O)[C@@H](NC(=O)OCC(C)C)c4ccco4)C[C@@](O)([C@@H](OC(=O)c4ccccc4)C12)C3(C)C (stereo partly drawn) [Compound 3102]
- potency compared to that of paclitaxel ([1]; 1A9-PTX22 (sentence covers 1A9-PTX10 and 1A9-PTX22)): 4 to 8 fold
- IC50 ([1]; Homo sapiens, 1A9/ptx-22): 8.5 nM
- MDS to 2.0 g ± SEM (n) ([2]; 30 mg/kg IV Q4D × 4): 45.3 ± 4.6
- MDS to 2.0 g ± SEM (n) ([2]; 50 mg/kg PO Q4D × 4): 47.1 ± 3.9
- MDS to 2.0 g ± SEM (n) ([2]; 70 mg/kg PO Q4D × 4): 46.1 ± 3.5
- MDS to 2.0 g ± SEM (n) ([2]; 80 mg/kg PO Q4D × 4): 53.8±
- Logrank Test Chi square ([3]; IV Q4D × 4 30 mg/kg vs 5% EC in Saline PO Q4D × 4): 5.459
- Logrank Test Chi square ([3]; PO Q4D × 4 50 mg/kg vs 5% EC in Saline PO Q4D × 4): 1.972
- Logrank Test Chi square ([3]; PO Q4D × 4 70 mg/kg vs 5% EC in Saline PO Q4D × 4): 0.2502
- Logrank Test Chi square ([3]; PO Q4D × 4 80 mg/kg vs 5% EC in Saline PO Q4D × 4): 5.234
- toxicity profile [14]: favorable toxicity profile
- IC50 ([4]; Homo sapiens): 2.6 nM
- IC50 ([5]; Homo sapiens): 1.8 nM
- IC50 ([6]; Homo sapiens): 1.9 nM
- IC50 [7, 15]: 1.6 nM
- Apoptotic (percentage of cells in sub G1 peak) ([8]; 10 nM): 24.4%
- G1 (percentage of cells) ([8]; 10 nM): 20.1%
- G2/M (percentage of cells) ([8]; 10 nM): 27.3%
- S (percentage of cells) ([8]; 10 nM): 23.9%
- Apoptotic (percentage of cells in sub G1 peak) ([8]; 100 nM): 11.7%
- G1 (percentage of cells) ([8]; 100 nM): 7.0%
- G2/M (percentage of cells) ([8]; 100 nM): 74.0%
- S (percentage of cells) ([8]; 100 nM): 7.1%
- IC50 ([9]; Homo sapiens): 1.2 nM
- IC50 ([10]; Homo sapiens): 1.8 nM
- IC50 ([13]; Homo sapiens): 0.9 nM
- potency compared to that of paclitaxel ([11]; 1A9-PTX10 (sentence covers 1A9-PTX10 and 1A9-PTX22)): 4 to 8 fold
- IC50 ([11]; Homo sapiens, 1A9/ptx-10): 5.2 nM
- treatment related death [12]: One
